# From PMC10590383, “Repurposing conformational changes in ANL superfamily enzymes to rapidly generate biosensors for organic and amino acids” (Nature Communications, 2023)
# How the values were obtained:
# Type in all cases: biochemical
# Conditions in all cases: n = 3
# GECFINDER-Phe3 [1] = molecular target: T1, GECFINDER-Phe3 (Aneurinibacillus migulanus, UniProt P0C061); experiment: Fluorescence dose-response of purified […]-Phe3 with phenylalanine in 100 mM Tris at pH 6.5, room temperature, 1 mM ATP, 2.5 mM MgCl2.
# T1 construct: gene grsA; GrsA-PheA-PCP; cpEGFP inserted in hinge B, linkers VF-QS
# T1 sequence (P0C061 1-617): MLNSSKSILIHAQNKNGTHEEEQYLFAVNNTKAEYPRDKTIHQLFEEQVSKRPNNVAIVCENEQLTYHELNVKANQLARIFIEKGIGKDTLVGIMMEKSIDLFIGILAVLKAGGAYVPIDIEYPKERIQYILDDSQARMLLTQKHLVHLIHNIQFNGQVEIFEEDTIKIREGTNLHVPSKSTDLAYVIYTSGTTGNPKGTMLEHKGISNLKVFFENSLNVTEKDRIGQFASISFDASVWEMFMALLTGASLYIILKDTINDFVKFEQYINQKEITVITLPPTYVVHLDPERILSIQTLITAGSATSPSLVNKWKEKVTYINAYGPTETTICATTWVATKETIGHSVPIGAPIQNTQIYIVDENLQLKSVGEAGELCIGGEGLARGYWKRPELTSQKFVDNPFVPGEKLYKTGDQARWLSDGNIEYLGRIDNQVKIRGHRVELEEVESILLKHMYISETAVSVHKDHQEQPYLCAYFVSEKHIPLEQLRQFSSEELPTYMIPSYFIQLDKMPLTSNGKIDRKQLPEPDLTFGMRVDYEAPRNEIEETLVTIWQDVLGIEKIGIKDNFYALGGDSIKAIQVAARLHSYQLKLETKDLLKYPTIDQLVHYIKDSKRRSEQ
# Excerpt: (§1) As cpEGFP is sensitive to pH, we conducted a dose-response curve and fluorescence intensity analysis of […]-Phe3 at varying pH levels. […] In addition, we expanded the range of ligand-binding domains (LBDs) applicable to […] and attempted optimization of insertion sites for cpEGFP with limited success. Please refer to Supplemental Note 1 for detailed information.
# (§2) The study conducted dose–response curve, substrate specificity, and fluorescent spectrum analyses in 100-mM Tris buffer (pH = 7.5), while pH stability experiments were performed in 100-mM Tris buffer at three different pH values (6.5, 7.5, and 8.5) at room temperature. […] Fluorescent signals were detected using a Microplate Reader (Synergy H4, Bio Tek) at an excitation/emission wavelength of 460 nm/510 nm or 480 nm/510 nm. The dose-response curve was determined immediately after the addition of the analyte. The total duration of the measurement was 15 min, with readings taken at one-minute intervals. The dose-response curve was plotted using the fluorescence values obtained after achieving stability in the fluorescence signal. […] The thermal stability of […] was analyzed using the UNcle multifunctional protein stability analysis system. […] Absolute fluorescence quantum yields were measured using an absolute photoluminescence quantum yield spectrometer (FS5, Edinburgh). […]
# GECFINDER-Leu2 = molecular target: T2, GECFINDER-Leu2 (Aneurinibacillus migulanus, UniProt P0C061, A301G/I277L/T278L); experiment: Fluorescence dose-response of purified binding-pocket-engineered sensors (0.75 uM) in 100 mM Tris-HCl pH 7.5, room temperature, 1 mM ATP, 2.5 mM MgCl2, excitation 460 or 480 nm, emission 510 nm; logistic five-parameter fit.
# T2 construct: gene grsA
# Experimental: (§3) Fig. 4 Engineering ligand specificity of GrsA-PheA for generating […]s. a The selectivity-conferring code of Phe and Leu A domains. b–f Dose–response curve of purified […]s with increasing concentrations of ligands in 100 mM Tris-HCl buffer (pH=7.5). All data shown are means ± S.D. (n = 3 biologically independent samples). g A series of […] reactions was tested to show the […]’s specificity with 20 proteinogenic amino acids. The values on the heatmap represent the ΔF/F0 value normalized to each […]’s maximal ΔF/F0 value ((ΔF/F0)/maximal ΔF/F0). The concentrations of 20 amino acids were 100 μM. The color indicates the average value of three independent biological replicates after 15 min. All data shown are means ± S.D. (n = 3 biologically independent samples). Source data are provided as a Source data file.
# (§4) The study conducted dose–response curve, substrate specificity, and fluorescent spectrum analyses in 100-mM Tris buffer (pH = 7.5), while pH stability experiments were performed in 100-mM Tris buffer at three different pH values (6.5, 7.5, and 8.5) at room temperature. […] protein at a concentration of 0.75 μM, various small molecule concentrations, 1 mM ATP, and 2.5 mM MgCl2 were used in the experiments. Fluorescent signals were detected using a Microplate Reader (Synergy H4, Bio Tek) at an excitation/emission wavelength of 460 nm/510 nm or 480 nm/510 nm. The dose-response curve was determined immediately after the addition of the analyte. The total duration of the measurement was 15 min, with readings taken at one-minute intervals. The dose-response curve was plotted using the fluorescence values obtained after achieving stability in the fluorescence signal. The dose-response curves were fitted using the logistic model LOGISTIC5 available in Origin 2021, which could provide a more adequate fit to asymmetric dose-response data[62],[63]. Excitation spectra were scanned from 300 to 540 nm with a step size of 5 nm, and the emission wavelength was set to 560 nm. Emission spectra were scanned from 470 to 700 nm with a step size of 5 nm, and the excitation wavelength was set to 450 nm. The thermal stability of […] was analyzed using the UNcle multifunctional protein stability analysis system. Measurements were performed in 20 mM MOPS buffer with 2 mM DTT at a sample concentration of 1 mg/mL. Absolute fluorescence quantum yields were measured using an absolute photoluminescence quantum yield spectrometer (FS5, Edinburgh).
# GECFINDER-Leu3 = molecular target: T3, GECFINDER-Leu3 (Aneurinibacillus migulanus, UniProt P0C061, A301G/S447N/T278L); experiment: as above
# T3 construct: gene grsA
# Experimental: as §3, §4
# GECFINDER-Leu4 = molecular target: T4, GECFINDER-Leu4 (Aneurinibacillus migulanus, UniProt P0C061, A301G/I277L/S447N/T278L); experiment: as above
# T4 construct: gene grsA
# Experimental: as §3, §4
# GECFINDER-SβF = experiment: as above
# Experimental: as §3, §4
# GECFINDER-Tyr = molecular target: T5, GECFINDER-Tyr (Aneurinibacillus migulanus, UniProt P0C061, W239S); experiment: as above
# T5 construct: gene grsA
# Experimental: as §3, §4
# GECFINDER-Phe3 [2] = molecular target: T1, GECFINDER-Phe3; experiment: Fluorescence dose-response of purified […]-Phe3 with phenylalanine in 100 mM Tris at pH 8.5, room temperature, 1 mM ATP, 2.5 mM MgCl2.
# Excerpt: as §1, §2
smiles,measurement,setting,value
"N[C@@H](Cc1ccccc1)C(=O)O [Phe, phenylalanine]",EC50,GECFINDER-Phe3 [1],2.03 µM
same,EC50,GECFINDER-Leu2,606 ± 407 µM
same,EC50,GECFINDER-Leu3,392 ± 51.8 µM
same,EC50,GECFINDER-Leu4,158 ± 22.6 µM
same,EC50,GECFINDER-SβF,234 ± 23.7 µM
same,EC50,GECFINDER-Tyr,258 ± 37.3 µM
same,EC50,GECFINDER-Phe3 [2],2.38 µM
